Patent publication US9174994B2, “Enhanced treatment regimens using mTor inhibitors” (INTELLIKINE LLC, priority 2011, dated 2015)

Experiment: Phase I clinical trial: treatment-emergent adverse events (patients, n (%)), dose limiting toxicity, MTD
Assay type: in vivo
Experimental: Safety, maximum tolerated dose (MTD), pharmacokinetics (PK) and preliminary antitumor activity were evaluated.
Pharmacodynamic (PD) endpoints were evaluated in surrogate (peripheral blood cells [PBCs], skin) and tumor tissues for the phosphorylation of TORC1-dependent markers (4EBP1/S6), and TORC2-dependent markers (AKT/PRAS40).

CC(C)n1nc(-c2ccc3oc(N)nc3c2)c2c(N)ncnc21 [compound A]
Rash: Dose limiting toxicity (6 mg QD)
2 (67%): Dysgeusia (2 mg/day (N = 3)) | Hyperglycaemia (2 mg/day (N = 3)) | Mucosal inflammation (6 mg/3 W, QDx3d QW (N = 3)) | Nausea (6 mg/3 W, QDx3d QW (N = 3))
1 (14%): Blood creatinine increased (4 mg/day (N = 7)) | Decreased appetite (4 mg/day (N = 7)) | Dry mouth (4 mg/day (N = 7)) | Dyspnoea exertional (4 mg/day (N = 7)) | Hypercholesterolaemia (4 mg/day (N = 7)) | Lymphopenia (4 mg/day (N = 7)) | Polyuria (4 mg/day (N = 7)) | Thrombocytopenia (4 mg/day (N = 7)) | Blood creatinine increased (6 mg/day (N = 7)) | Decreased appetite (6 mg/day (N = 7)) | Dysgeusia (6 mg/day (N = 7)) | Eye infection (6 mg/day (N = 7)) | Fatigue (6 mg/day (N = 7)) | Insomnia (6 mg/day (N = 7)) | Muscle spasms (6 mg/day (N = 7))
1 (33%): Decreased appetite (2 mg/day (N = 3)) | Dry mouth (2 mg/day (N = 3)) | Dyspepsia (2 mg/day (N = 3)) | Fatigue (2 mg/day (N = 3)) | Nausea (2 mg/day (N = 3)) | Rash (2 mg/day (N = 3)) | Alanine aminotransferase increased (6 mg/3 W, QDx3d QW (N = 3)) | Hyperbilirubinaemia (6 mg/3 W, QDx3d QW (N = 3)) | Hyperglycaemia (6 mg/3 W, QDx3d QW (N = 3)) | Platelet count decreased (6 mg/3 W, QDx3d QW (N = 3)) | Pruritus (6 mg/3 W, QDx3d QW (N = 3)) | Rash (6 mg/3 W, QDx3d QW (N = 3)) | Vomiting (6 mg/3 W, QDx3d QW (N = 3)) | Diarrhoea (7 mg/5 W, QDx5d QW (N = 3)) | Patients Reporting at Least One Related TEAE (7 mg/5 W, QDx5d QW (N = 3)) | Rash (7 mg/5 W, QDx5d QW (N = 3)) | Nausea (7 mg/5 W, QDx5d QW (N = 3), 2nd Nausea line) | Alanine aminotransferase increased (7 mg/week (N = 3)) | Aspartate aminotransferase increased (7 mg/week (N = 3)) | Diarrhoea (7 mg/week (N = 3)) | Dysgeusia (7 mg/week (N = 3)) | Hyperglycaemia (7 mg/week (N = 3)) | Lymphopenia (7 mg/week (N = 3)) | Nausea (7 mg/week (N = 3))
8 (100%): Hyperglycaemia (7 mg/day (N = 8)) | Patients Reporting at Least One Related TEAE (7 mg/day (N = 8))
1 (13%): Coagulopathy (7 mg/day (N = 8)) | Confusional state (7 mg/day (N = 8)) | Cough (7 mg/day (N = 8)) | Dizziness (7 mg/day (N = 8)) | Dry skin (7 mg/day (N = 8)) | Dyspnoea (7 mg/day (N = 8)) | Gastritis (7 mg/day (N = 8)) | Gravitational oedema (7 mg/day (N = 8)) | Hypercholesterolaemia (7 mg/day (N = 8)) | Hypocalcaemia (7 mg/day (N = 8)) | Orthostatic hypotension (7 mg/day (N = 8)) | Panniculitis (7 mg/day (N = 8)) | Skin discolouration (7 mg/day (N = 8)) | Skin exfoliation (7 mg/day (N = 8)) | Weight decreased (7 mg/day (N = 8))
2 (25%): Anaemia (7 mg/day (N = 8)) | Dehydration (7 mg/day (N = 8)) | Dysgeusia (7 mg/day (N = 8)) | Fatigue (7 mg/day (N = 8)) | Lymphopenia (7 mg/day (N = 8)) | Pruritus (7 mg/day (N = 8))
2 (29%): Fatigue (4 mg/day (N = 7)) | Mucosal inflammation (4 mg/day (N = 7)) | Nausea (4 mg/day (N = 7)) | Pruritus (4 mg/day (N = 7)) | Asthenia (6 mg/day (N = 7)) | Mucosal inflammation (6 mg/day (N = 7))
0 (0%): Anaemia (2 mg/day (N = 3)) | Asthenia (2 mg/day (N = 3)) | Blood creatinine increased (2 mg/day (N = 3)) | Coagulopathy (2 mg/day (N = 3)) | Confusional state (2 mg/day (N = 3)) | Cough (2 mg/day (N = 3)) | Dehydration (2 mg/day (N = 3)) | Diarrhoea (2 mg/day (N = 3)) | Dizziness (2 mg/day (N = 3)) | Dry skin (2 mg/day (N = 3)) | Dyspnoea (2 mg/day (N = 3)) | Dyspnoea exertional (2 mg/day (N = 3)) | Eye infection (2 mg/day (N = 3)) | Gastritis (2 mg/day (N = 3)) | Gravitational oedema (2 mg/day (N = 3)) | Hypercholesterolaemia (2 mg/day (N = 3)) | Hypocalcaemia (2 mg/day (N = 3)) | Insomnia (2 mg/day (N = 3)) | Lymphopenia (2 mg/day (N = 3)) | Mucosal inflammation (2 mg/day (N = 3)) | Muscle spasms (2 mg/day (N = 3)) | Orthostatic hypotension (2 mg/day (N = 3)) | Panniculitis (2 mg/day (N = 3)) | Polyuria (2 mg/day (N = 3)) | Pruritus (2 mg/day (N = 3)) | Skin discolouration (2 mg/day (N = 3)) | Skin exfoliation (2 mg/day (N = 3)) | Thrombocytopenia (2 mg/day (N = 3)) | Vomiting (2 mg/day (N = 3)) | Weight decreased (2 mg/day (N = 3)) | Anaemia (4 mg/day (N = 7)) | Asthenia (4 mg/day (N = 7)) | Coagulopathy (4 mg/day (N = 7)) | Confusional state (4 mg/day (N = 7)) | Cough (4 mg/day (N = 7)) | Dehydration (4 mg/day (N = 7)) | Diarrhoea (4 mg/day (N = 7)) | Dizziness (4 mg/day (N = 7)) | Dry skin (4 mg/day (N = 7)) | Dyspepsia (4 mg/day (N = 7)) | Dyspnoea (4 mg/day (N = 7)) | Eye infection (4 mg/day (N = 7)) | Gastritis (4 mg/day (N = 7)) | Gravitational oedema (4 mg/day (N = 7)) | Hypocalcaemia (4 mg/day (N = 7)) | Insomnia (4 mg/day (N = 7)) | Muscle spasms (4 mg/day (N = 7)) | Orthostatic hypotension (4 mg/day (N = 7)) | Panniculitis (4 mg/day (N = 7)) | Skin discolouration (4 mg/day (N = 7)) | Skin exfoliation (4 mg/day (N = 7)) | Vomiting (4 mg/day (N = 7)) | Weight decreased (4 mg/day (N = 7)) | Asthenia (6 mg/3 W, QDx3d QW (N = 3)) | Catheter site inflammation (6 mg/3 W, QDx3d QW (N = 3)) | Catheter site pain (6 mg/3 W, QDx3d QW (N = 3)) | Decreased appetite (6 mg/3 W, QDx3d QW (N = 3)) | Diarrhoea (6 mg/3 W, QDx3d QW (N = 3)) | Dry skin (6 mg/3 W, QDx3d QW (N = 3)) | Dysgeusia (6 mg/3 W, QDx3d QW (N = 3)) | Dyspnoea (6 mg/3 W, QDx3d QW (N = 3)) | Fatigue (6 mg/3 W, QDx3d QW (N = 3)) | Headache (6 mg/3 W, QDx3d QW (N = 3)) | Hypercholesterolaemia (6 mg/3 W, QDx3d QW (N = 3)) | Hypertransaminasaemia (6 mg/3 W, QDx3d QW (N = 3)) | Hypertriglyceridaemia (6 mg/3 W, QDx3d QW (N = 3)) | Hypomagnesaemia (6 mg/3 W, QDx3d QW (N = 3)) | Hypotension (6 mg/3 W, QDx3d QW (N = 3)) | Low fever (6 mg/3 W, QDx3d QW (N = 3)) | Lymphopenia (6 mg/3 W, QDx3d QW (N = 3)) | Palmar-plantar erythrodysaesthesia syndrome (6 mg/3 W, QDx3d QW (N = 3)) | Pyrexia (6 mg/3 W, QDx3d QW (N = 3)) | Rash macular (6 mg/3 W, QDx3d QW (N = 3)) | Urinary tract infection (6 mg/3 W, QDx3d QW (N = 3)) | Asthenia (6 mg/3 W, QDx3d QW (N = 3), 2nd Asthenia line) | Anaemia (6 mg/day (N = 7)) | Coagulopathy (6 mg/day (N = 7)) | Confusional state (6 mg/day (N = 7)) | Cough (6 mg/day (N = 7)) | Dehydration (6 mg/day (N = 7)) | Dizziness (6 mg/day (N = 7)) | Dry mouth (6 mg/day (N = 7)) | Dry skin (6 mg/day (N = 7)) | Dyspepsia (6 mg/day (N = 7)) | Dyspnoea (6 mg/day (N = 7)) | Dyspnoea exertional (6 mg/day (N = 7)) | Gastritis (6 mg/day (N = 7)) | Gravitational oedema (6 mg/day (N = 7)) | Hypocalcaemia (6 mg/day (N = 7)) | Lymphopenia (6 mg/day (N = 7)) | Orthostatic hypotension (6 mg/day (N = 7)) | Panniculitis (6 mg/day (N = 7)) | Polyuria (6 mg/day (N = 7)) | Skin discolouration (6 mg/day (N = 7)) | Skin exfoliation (6 mg/day (N = 7)) | Thrombocytopenia (6 mg/day (N = 7)) | Weight decreased (6 mg/day (N = 7)) | Urine tract infection (7 mg/5 W, QDx5d QW (N = 3)) | Vomiting (7 mg/5 W, QDx5d QW (N = 3)) | Nausea (7 mg/5 W, QDx5d QW (N = 3), 1st Nausea line) | Dyspepsia (7 mg/day (N = 8)) | Dyspnoea exertional (7 mg/day (N = 8)) | Eye infection (7 mg/day (N = 8)) | Insomnia (7 mg/day (N = 8)) | Muscle spasms (7 mg/day (N = 8)) | Polyuria (7 mg/day (N = 8)) | ASTHENIA (7 mg/week (N = 3)) | ATHENIA (7 mg/week (N = 3)) | Asthenia (7 mg/week (N = 3)) | Blood creatinine increased (7 mg/week (N = 3)) | Blood triglycerides increased (7 mg/week (N = 3)) | DIARRHEA (7 mg/week (N = 3)) | Decreased appetite (7 mg/week (N = 3)) | Dyspepsia (7 mg/week (N = 3)) | HYPERGLYCEMIA (7 mg/week (N = 3)) | Malaise (7 mg/week (N = 3)) | Mucosal inflammation (7 mg/week (N = 3)) | Muscle spasms (7 mg/week (N = 3))
3 (100%): Patients Reporting at Least One Related TEAE (2 mg/day (N = 3)) | Patients Reporting at Least One Related TEAE (6 mg/3 W, QDx3d QW (N = 3))
3 (43%): Dysgeusia (4 mg/day (N = 7)) | Rash (4 mg/day (N = 7)) | Hypercholesterolaemia (6 mg/day (N = 7)) | Nausea (6 mg/day (N = 7)) | Vomiting (6 mg/day (N = 7))
3 (38%): Decreased appetite (7 mg/day (N = 8)) | Diarrhoea (7 mg/day (N = 8)) | Dry mouth (7 mg/day (N = 8)) | Nausea (7 mg/day (N = 8)) | Thrombocytopenia (7 mg/day (N = 8)) | Vomiting (7 mg/day (N = 8))
5 (71%): Hyperglycaemia (4 mg/day (N = 7)) | Diarrhoea (6 mg/day (N = 7)) | Pruritus (6 mg/day (N = 7)) | Rash (6 mg/day (N = 7))
7 (100%): Patients Reporting at Least One Related TEAE (4 mg/day (N = 7)) | Hyperglycaemia (6 mg/day (N = 7)) | Patients Reporting at Least One Related TEAE (6 mg/day (N = 7))
4 (50%): Asthenia (7 mg/day (N = 8)) | Blood creatinine increased (7 mg/day (N = 8)) | Mucosal inflammation (7 mg/day (N = 8)) | Rash (7 mg/day (N = 8))
